According to patent publication US8076302B2, “Pyrimidine nucleoside derivatives and salts thereof” (aRigen Pharmaceuticals, Inc., priority 2007, dated 2011):
Structures can show the parent of a compound that is named as a salt. Where two headings read alike, the source gives them in different places. Blank lines part the entries; values can stand above or below the compound they belong to.

Experiments:
[1] = tested on: HSV-1; assay: In vitro antiviral test, 50% plaque formation inhibition, anti-HSV-1 activity; format: cell-based, herpes simplex virus type 1 (HSV-1)
Description: (§1) The compounds of the present invention were measured for their in vitro antiviral activity (anti-HSV-1 activity, anti-VZV activity) by using human fetal lung-derived cells in an assay for 50% plaque formation inhibition (Japanese Journal of Chemotherapy, Vol. 38, No. 3, 256-261, 1990).

[2] = tested on: VZV; assay: In vitro antiviral test, 50% plaque formation inhibition, anti-VZV activity; format: cell-based, varicella-zoster virus (VZV)
Description: as §1

[3] = tested on: HSV-1 infection in mouse skin; assay: In vivo antiviral test, HSV-1 mouse skin infection model (creams); settings: HSV-1-infected mice, cream; for Incidence rate: affected/total animals
Description: Creams were prepared for the compounds of the present invention according to Formulation Example 2 and tested for their therapeutic effect on HSV-1 infection in mouse skin. Moreover, skin symptoms in the HSV-1-infected mice were scored (Antiviral Research, 17, 133-143, 1992), and the time course of changes in their average lesion scores is shown in FIG. 1.
According to the ratio indicated above, creams were prepared in a routine manner and provided for Pharmacological Test Example 2.

[4] = tested on: herpes simplex virus type 1 (HSV-1) and varicella-zoster virus (VZV); settings: Patent Document 1; cited from earlier work
[5] = tested on: HSV-1 infection in mice; settings: compared with acyclovir; Non-patent Document 1; cited from earlier work
[6] = tested on: uninfected cells; settings: cited from earlier work
[7] = Human alphaherpesvirus 1, effective concentration required to reduce the number of plaques to 50%, human fetal lung-derived cells, read-out: Anti-HSV-1 activity (ED50)
[8] = Human alphaherpesvirus 3, 50% plaque formation inhibition, human fetal lung-derived cells, read-out: Anti-VZV activity (ED50)
[9] = Human alphaherpesvirus 1, read-out: Anti-HSV-1 activity (ED50)
[10] = Human alphaherpesvirus 3, read-out: Anti-VZV activity (ED50)

SMILES: O=C(OCC1OC(n2cc(/C=C/Cl)c(=O)[nH]c2=O)C(O)C1O)C1CCNCC1 [Compound 1, (E)-5-(2-chlorovinyl)-1-[5′-O-(piperidine-4-carboxyl)-β-D-arabinofuranosyl]uracil hydrochloride]
EC50 [1, 9]: 400 nM
EC50 [2, 10]: 46 nM
Incidence rate ([3]; hydrochloride): 4/8

SMILES: CC(C)C(N)C(=O)OCC1OC(n2cc(/C=C/Cl)c(=O)[nH]c2=O)C(O)C1O [Compound 2, 1-[5′-0-(L-valine)-β-D-arabinofuranosyl]-(E)-5-(2-chlorovinyl)uracil hydrochloride]
EC50 [1, 9]: 120 nM
EC50 [2, 10]: 19 nM
Incidence rate [3]: 8/8

SMILES: CN1CCC(C(=O)OCC2OC(n3cc(/C=C/Cl)c(=O)[nH]c3=O)C(O)C2O)CC1 [Compound 5, (E)-5-(2-chlorovinyl)-1-[5′-O—(N-methylpiperidine-4-carboxyl)-β-D-arabinofuranosyl]uracil hydrochloride]
EC50 [1, 7]: 560 nM
EC50 [2, 8]: 47 nM

SMILES: O=c1[nH]c(=O)n([C@@H]2O[C@H](CO)[C@@H](O)[C@@H]2O)cc1/C=C/Br [Sorivudine, 1-β-D-arabinofuranosyl-(E)-5-(2-bromovinyl)uracil]
Usefulness as external formulation for HSV-1 infection in mice [5]: as useful as acyclovir
Cytotoxicity [6]: extremely low

The next lines start with results.

EC50 [1, 7]: 75 nM
EC50 [2, 8]: 8.9 nM
SMILES: O=c1[nH]c(=O)n([C@@H]2O[C@H](CO)[C@@H](O)[C@@H]2O)cc1/C=C/Cl [CVAU, 1-β-D-arabinofuranosyl-(E)-5-(2-chlorovinyl)uracil, reference compound]
Incidence rate [3]: 6/8
Survival rate ([3]; survivors/total animals, chi-square test vs control): 7/8 P < 0.01
Activity compared with sorivudine [4]: the same activity as sorivudine

EC50 [1, 7]: 490 nM
EC50 [2, 8]: 52 nM
SMILES: O=C(OCC1OC(n2cc(/C=C/Cl)c(=O)[nH]c2=O)C(O)C1O)c1cccnc1 [Compound 3, (E)-5-(2-chlorovinyl)-1-[5′-O-(pyridine-3-carboxyl)-β-D-arabinofuranosyl]uracil hydrochloride]

EC50 [1, 7]: 130 nM
EC50 [2, 8]: 21 nM
SMILES: O=C(OCC1OC(n2cc(/C=C/Cl)c(=O)[nH]c2=O)C(O)C1O)c1ccncc1 [Compound 4, (E)-5-(2-chlorovinyl)-1-[5′-O-(pyridine-4-carboxyl)-β-D-arabinofuranosyl]uracil hydrochloride]
